US8034353B2, “Peptide vaccine for inducing the production of anti-amyloid β-peptide antibody” (priority 2006, dated 2011)
Like-named read-outs stand apart in the source and are kept apart here.

Tests used:
T-cell [1] = type: cell-based, mice
T-cell [2] = type: cell-based, human
Aβ (SEQ ID NO:2) = experiment: Anti-Aβ antibody titer in serum of transnasally vaccinated mice, ELISA (Experiment 1); type: in vivo, BALB/c female mice; details: BALB/c mice, transnasal 50 μg/mouse/once, four times at two weeks interval, serum one week after last administration
Source text: The results are in Table 1.

Substance | Induction of blastogenesis of the T-cell (T-cell [1]) | Induction of blastogenesis of the T-cell (T-cell [2]) | Antibody titer Anti-Aβ antibody (Aβ (SEQ ID NO:2))
AYNFVESIINLFQVVHNSYN (diphtheria toxoid (partial sequence)) [DTL] | inducing the blastogenesis of the T-cell | inducing the blastogenesis of the T-cell | –
QYIVNEDKFQILYNSIMYGF (tetanus toxoid (partial sequence)) [TetT3L] | inducing the blastogenesis of the T-cell | inducing the blastogenesis of the T-cell | –
RGD-Gag-KK-Aβ(1-11): RGD motif, Gag T-cell epitope (HIV-1 Gag 298-312), KK linker, Aβ(1-11) B-cell epitope (RGDKRWIILGLNKIVRMYKKDAEFRHDSGYE; peptide for the production of anti-amyloid beta antibody) | – | – | 14.9
RGD-Gag-KK-Aβ(1-13): RGD motif, Gag T-cell epitope (HIV-1 Gag 298-312), KK linker, Aβ(1-13) B-cell epitope (RGDKRWIILGLNKIVRMYKKDAEFRHDSGYEVH; peptide for the production of anti-amyloid beta antibody) | – | – | 32
RGD-Gag-KK-Aβ(3-11): RGD motif, Gag T-cell epitope (HIV-1 Gag 298-312), KK linker, Aβ(3-11) B-cell epitope (RGDKRWIILGLNKIVRMYKKEFRHDSGYE; peptide for the production of anti-amyloid beta antibody) | – | – | 22.6
